Source: patent publication US20240254118A1, “PRMT5 INHIBITORS AND USES THEREOF” (Gilead Sciences, Inc., priority 2022, published 2024)

Each molecule was assayed on HCT116 MTAP-deleted cells (assay: Cell viability assay (CellTiter-Glo, 7 days), HCT116 MTAP-deleted). Details: Homo sapiens, HCT-116, 168 h.
`CN(C(=O)C1CC1)N(Cc1ccc(C(F)(F)F)cn1)C(=O)c1cc2c(cn1)nc(N)c1cnn(C)c12` [Example 422, 4-amino-N′-(cyclopropanecarbonyl)-N′,1-dimethyl-N-((5-(trifluoromethyl)pyridin-2-yl)methyl)-1H-pyrazolo[4,3-c][1,7]naphthyridine-8-carbohydrazide] was tested, and the CC50 was 100 to 1000 nM. `CC(=O)N(C)N(Cc1nc2cc(F)c(F)cc2n1C)C(=O)c1ccc2nc(N)c3cnn(C)c3c2c1` [Example 424, N′-acetyl-4-amino-N-((5,6-difluoro-1-methyl-1H-benzo[d]imidazol-2-yl)methyl)-N′,1-dimethyl-1H-pyrazolo[4,3-c]quinoline-8-carbohydrazide] was tested, and the CC50 was less than 100 nM. With `CC(=O)N(C)N(Cc1ccn(-c2ccc(F)cc2)n1)C(=O)c1cc2c(cc1F)nc(N)c1cnn(C)c12` [Example 425, N′-acetyl-4-amino-7-fluoro-N-((1-(4-fluorophenyl)-1H-pyrazol-3-yl)methyl)-N′,1-dimethyl-1H-pyrazolo[4,3-c]quinoline-8-carbohydrazide] the CC50 was less than 100 nM. `CC(=O)N(C)N(Cc1nc2ccc(Cl)cc2n1C)C(=O)c1ccc2nc(N)c3cnn(C)c3c2c1` [Example 426, N′-acetyl-4-amino-N-((6-chloro-1-methyl-1H-benzo[d]imidazol-2-yl)methyl)-N′,1-dimethyl-1H-pyrazolo[4,3-c]quinoline-8-carbohydrazide] gave a CC50 of less than 100 nM. `Cn1ncc2c(N)nc3cc(F)c(C(=O)N(Cc4ccc(C(F)(F)F)cn4)N4CCOC(C(F)(F)F)C4)cc3c21` (centres unmarked) [Example 427, 4-amino-7-fluoro-1-methyl-N-(2-(trifluoromethyl)morpholino)-N-((5-(trifluoromethyl)pyridin-2-yl)methyl)-1H-pyrazolo[4,3-c]quinoline-8-carboxamide] was tested, and the CC50 was less than 100 nM. In the case of `Cn1ncc2c(N)nc3ccc(C(=O)N(Cc4ccc(C(F)(F)F)cn4)N4CCOC(C(F)(F)F)C4)cc3c21` (centres unmarked) [Example 428, 4-amino-1-methyl-N-(2-(trifluoromethyl)morpholino)-N-((5-(trifluoromethyl)pyridin-2-yl)methyl)-1H-pyrazolo[4,3-c]quinoline-8-carboxamide], the CC50 is reported as 100 to 1000 nM. `CC(=O)N(C)N(Cc1nc(-c2ccccc2)cs1)C(=O)c1ccc2nc(N)c3cnn(C)c3c2c1` [Example 429, N′-acetyl-4-amino-N′,1-dimethyl-N-((4-phenylthiazol-2-yl)methyl)-1H-pyrazolo[4,3-c]quinoline-8-carbohydrazide] was tested, and the CC50 was less than 100 nM. For `CC(=O)N(C)N(Cc1cnn(-c2ccc(C(F)(F)F)cc2)c1)C(=O)c1ccc2nc(N)c3cnn(C)c3c2c1` [Example 430, N′-acetyl-4-amino-N′,1-dimethyl-N-((1-(4-(trifluoromethyl)phenyl)-1H-pyrazol-4-yl)methyl)-1H-pyrazolo[4,3-c]quinoline-8-carbohydrazide], the CC50 was 100 to 1000 nM. Work on `CC(=O)N(C)N(Cc1nc2ccccc2n1C(F)F)C(=O)c1ccc2nc(N)c3cnn(C)c3c2c1` [Example 431, N′-acetyl-4-amino-N-((1-(difluoromethyl)-1H-benzo[d]imidazol-2-yl)methyl)-N′,1-dimethyl-1H-pyrazolo[4,3-c]quinoline-8-carbohydrazide] yielded a CC50 of 100 to 1000 nM. Molecule `CC(=O)N(C)N(Cc1cnc(-c2ccccc2)n1C)C(=O)c1ccc2nc(N)c3cnn(C)c3c2c1` [Example 433, N′-acetyl-4-amino-N′,1-dimethyl-N-((1-methyl-2-phenyl-1H-imidazol-5-yl)methyl)-1H-pyrazolo[4,3-c]quinoline-8-carbohydrazide] has a CC50 of less than 100 nM. `Cn1ncc2c(N)nc3ccc(C(=O)N(Cc4ccn(-c5ccccc5F)n4)NC(=O)C4CC4)cc3c21` [Example 434, 4-amino-N′-(cyclopropanecarbonyl)-N-((1-(2-fluorophenyl)-1H-pyrazol-3-yl)methyl)-1-methyl-1H-pyrazolo[4,3-c]quinoline-8-carbohydrazide] showed a CC50 of less than 100 nM.
